According to US20180362893A1, “COMPOSITIONS COMPRISING AN ULTRAVIOLET INDICATOR” (Chemia Corporation, priority 2015, published 2018):

Experiment: Solubility of Pylaklor White Grains S-5 UV indicator in fragrances
Settings: for Color change of the solution: solution of the named fragrance with 5 wt. % Pylaklor White Grains S-5
[1] = Pylaklor White Grains S-5 at 5 wt. % in the named aldehyde fragrance (Table 6)
[2] = Pylaklor White Grains S-5 at 5 wt. % in the named fragrance (Table 5)

Method: The solubility of Pylaklor White Grains S-5 UV indicator was evaluated in difference chemical classes of fragrances at a UV indicator concentration of 5 wt. %. The resulting admixtures were evaluated for UV activity by exposure to UV light (400 nm ±5 nm) using a Rayovac VBUV-B light source and visual observation.
The solubility of Pylaklor White Grains S-5 UV indicator was evaluated in three different aldehyde fragrances at a UV indicator concentration of 5 wt. %. The resulting admixtures were evaluated for UV activity by exposure to UV light (400 nm±5 nm) using a Rayovac VBUV-B light source and visual observation.

CCCCCCCCCC=O [Aldehyde C-10 (decanal), decanal]
Soluble [1]: Yes

O=C/C=C/c1ccccc1 [Cinnamic aldehyde]
Soluble [1]: Yes

CC/C=C\CCO [Cis-3-hexanol]
Soluble [2]: Yes | Color change of the solution: changed from a straw color to a yellow color

CCOC(C)=O [Ethyl acetate]
Soluble [2]: Yes

CCCCCCC1CCC(=O)O1 (stereo not shown) [Gamma-decalactone]
Soluble [2]: Yes

CCCCCCC(C=O)=Cc1ccccc1 [Hexyl cinnamic aldehyde]
Soluble [2]: Yes | Color change of the solution: changed color

C=CC(C)(O)CCC=C(C)C (stereo not shown) [Linalool]
Soluble [2]: Yes

CCCCCC1C(=O)CCC1CC(=O)OC (stereo not shown) [Methyl dihydrojasmonate]
Soluble [2]: Yes
